Results from article PMC9200625, “Identification and Functional Characterization of Peptides With Antimicrobial Activity From the Syphilis Spirochete, Treponema pallidum” (Frontiers in Microbiology, 2022).
Where two headings read alike, the source gives them in different places.

Experiments:
[1] = system: M. smegmatis MC^2155; format: cell-based, Mycobacterium smegmatis; details: range over 3–9 independent experiments
Description: (§1) Bacterial strains used in this study were: E. coli ATCC 9723H, Pseudomonas aeruginosa ATCC 10148, Staphylococcus aureus ATCC 6538P (penicillin resistant), Streptococcus pyogenes (hospital isolate, strain unknown), Mycobacterium smegmatis MC^2155, N. gonorrhoeae ATCC 700825 (streptomycin resistant), and Salmonella enterica subsp. enterica serovar Typhimurium SL1344 (streptomycin resistant). E. coli, P. aeruginosa, S. aureus, M. smegmatis, and S. enterica were cultured aerobically at 37°C in Mueller Hinton broth (MHB) (Sigma-Aldrich, MO, United States) and on nonselective Mueller Hinton agar (MHA) plates. S. pyogenes was cultured in 5% carbon dioxide at 37°C in MHB supplemented with 5% lysed horse blood (Quad Five, MT, United States) (MHB + 5% HB) and on nonselective MHA plates supplemented with 5% defibrinated sheep blood (Quad Five, MT, United States) (MHA + 5% SB). N. gonorrhoeae was cultured in 5% carbon dioxide at 37°C in gonococcal (GC) chocolate broth medium and on nonselective GC agar plates [GC medium base (BD Difco, MD, United States) supplemented with 1% BBL™ hemoglobin (BD Biosciences, MD, United States) and 1% IsoVitaleX (BD Biosciences, MD, United States)]. Prior to antimicrobial susceptibility assays (as described below), N. gonorrhoeae cultures were subcultured on nonselective GC agar plates (as described above), to ensure bacterial viability. All bacterial stocks were stored in 20% glycerol at –80°C.
(§2) Bacterial suspensions were prepared by transferring bacterial colonies into MHB and resuspending using a vortex mixer to ensure complete suspension of any bacterial aggregates. Turbidity of the colony suspensions was adjusted spectrophotometrically to the required optical densities to achieve a turbidity equivalent to that of a 0.5 McFarland standard (1–2 × 10^8 CFU/mL) followed by dilution in MHB to achieve the standardized microbial inoculum of approximately 5 × 10^5 CFU/mL. Total viable counts (TVC) were routinely performed on all inoculum suspensions to ensure correct bacterial cell densities. The standardized bacterial suspensions were then incubated with two-fold serial dilutions of each peptide (dissolved in 11 μL of ultrapure sterile water; final peptide concentration range of 256 μg/mL–0.5 μg/mL) in Greiner polypropylene round bottom 96-well microtiter plates (Sigma-Aldrich, MO, United States). Each peptide was tested once per experiment, with a range of 3–9 independent experiments performed per peptide. Negative growth/sterility control wells contained bacterial growth media (100 μL) and the peptide solvent (11 μL of ultrapure sterile water). Positive growth control wells contained the standardized number of bacterial cells (100 μL of ∼ 5.0 × 10^5 CFU/mL) and peptide solvent (11 μL of ultrapure sterile water). Plates were incubated at 37°C for 16–24 h and MICs were determined using the unaided eye to identify the lowest concentration of AMP that inhibited visible growth of the tested bacterial species. If the sterility control well was turbid, the test was not considered valid. MBCs were determined by plating the entire content of the wells containing the peptide/bacteria mixture representing the MIC and the entire contents of the preceding wells containing two-fold and four-fold more concentrated AMP dilutions onto nonselective agar plates.

[2] = system: N. gonorrhoeae ATCC 700825; format: cell-based, Neisseria gonorrhoeae; details: 3-h incubation 37°C 5% CO2, TVCs versus positive growth control, all of three to six independent experiments
Description: as §1
The potential antimicrobial activity of the T. pallidum peptides against N. gonorrhoeae was determined using a modified agar dilution method. In this assay, N. gonorrhoeae colonies from GC chocolate agar plates were resuspended in MHB and the turbidity of the suspension was adjusted, as described above, to achieve the standardized microbial inoculum of approximately 5 × 10^5 CFU/mL. A two-fold serial dilution of the peptides (11 μL in sterile ultrapure water) was then prepared in wells 1–10 of a 96-well sterile polypropylene plate to obtain a dilution series corresponding to 10 times the required testing concentrations (2,560, 1,280, 640, 320, 160, 80, 40, 20, 10, 5 μg/mL). The bacterial suspension (100 μL) was dispensed into the wells containing the peptides. A negative growth/sterility control (well 12) contained bacterial growth media (100 μL) and the peptide solvent (11 μL of ultrapure sterile water). A positive growth control (well 11) contained the standardized number of bacterial cells (100 μL of ∼ 5.0 × 10^5 CFU/mL) and peptide solvent (11 μL of ultrapure sterile water). The 96-well plate was then incubated at 37°C in an atmosphere of 5% CO2 for 3 h to allow for peptide binding and antimicrobial activity. After the incubation period, an aliquot (20 μL) from wells 1–12 was removed and spotted onto the surface of a GC chocolate agar plate. N. gonorrhoeae spotted plates and TVC plates were incubated at 37°C in an atmosphere of 5% CO2 for 18–24 h. […] To determine the bactericidal activity of peptides, total viable counts (TVCs) were also prepared on GC chocolate agar plates for the 3 h-incubated peptide/bacteria mixtures. These counts were compared with TVCs from the corresponding positive growth wells to give the percentage of bacteria killed by each of the peptides following the 3-h incubation.

[3] = system: E. coli ATCC 9723H; format: cell-based; details: range over 3–9 independent experiments
Description: as §1, §2

[4] = system: P. aeruginosa ATCC 10148; format: cell-based, Pseudomonas aeruginosa; details: range over 3–9 independent experiments
Description: as §1, §2

[5] = system: S. pyogenes Unknown strain; Clinical Isolate; format: cell-based, Streptococcus pyogenes; details: range over 3–9 independent experiments
Description: as §1, §2

[6] = system: S. enterica SL1344; format: cell-based, Salmonella enterica subsp. enterica serovar Typhimurium; details: range over 3–9 independent experiments
Description: as §1
(§3) Bacterial suspensions were prepared by transferring bacterial colonies into MHB and resuspending using a vortex mixer to ensure complete suspension of any bacterial aggregates. Turbidity of the colony suspensions was adjusted spectrophotometrically to the required optical densities to achieve a turbidity equivalent to that of a 0.5 McFarland standard (1–2 × 10^8 CFU/mL) followed by dilution in MHB to achieve the standardized microbial inoculum of approximately 5 × 10^5 CFU/mL. Total viable counts (TVC) were routinely performed on all inoculum suspensions to ensure correct bacterial cell densities. […] Plates were incubated at 37°C for 16–24 h and MICs were determined using the unaided eye to identify the lowest concentration of AMP that inhibited visible growth of the tested bacterial species. […] MBCs were determined by plating the entire content of the wells containing the peptide/bacteria mixture representing the MIC and the entire contents of the preceding wells containing two-fold and four-fold more concentrated AMP dilutions onto nonselective agar plates.

[7] = system: S. aureus ATCC 6538P; format: cell-based, Staphylococcus aureus; details: range over 3–9 independent experiments
Description: as §1, §3

[8] = broth microdilution in MHB, ~5 × 10^5 CFU/mL, peptide 256–0.5 μg/mL two-fold dilutions, 37°C 16–24 h, visible growth by unaided eye
[9] = wells at MIC, two-fold and four-fold higher plated on nonselective agar, 24 h 37°C

## CC[C@H](C)[C@H](NC(=O)[C@H](CCCCN)NC(=O)[C@H](CCC(=O)O)NC(=O)[C@H](CCCCN)NC(=O)[C@H](CO)NC(=O)[C@H](CCCCN)NC(=O)[C@H](CCCNC(=N)N)NC(=O)[C@H](Cc1ccccc1)NC(=O)[C@H](Cc1ccccc1)NC(=O)[C@H](CC(=O)O)NC(=O)CNC(=O)[C@H](CC(C)C)NC(=O)[C@@H](N)CC(C)C)C(=O)NCC(=O)N[C@@H](CCCCN)C(=O)N[C@@H](CCC(=O)O)C(=O)N[C@@H](Cc1ccccc1)C(=O)N[C@@H](CCCCN)C(=O)N[C@@H](CCCNC(=N)N)C(=O)N[C@H](C(=O)N[C@H](C(=O)N[C@@H](CCC(N)=O)C(=O)N[C@@H](CCCNC(=N)N)C(=O)N[C@H](C(=O)N[C@@H](CCCCN)C(=O)N[C@@H](CC(=O)O)C(=O)N[C@@H](Cc1ccccc1)C(=O)N[C@@H](CC(C)C)C(=O)N[C@@H](CCCNC(=N)N)C(=O)N[C@@H](CC(N)=O)C(=O)N[C@@H](CC(C)C)C(=O)N[C@H](C(=O)N1CCC[C@H]1C(=O)N[C@@H](CCCNC(=N)N)C(=O)N[C@H](C(=O)N[C@@H](CCC(=O)O)C(=O)N[C@@H](CO)C(=O)O)[C@@H](C)O)C(C)C)[C@@H](C)CC)C(C)C)[C@@H](C)CC [LL-37]
[1]; [8]
  MIC: 0.45 to 1.8 µM
[1]; [9]
  MBC: 0.45 to 1.8 µM
[2]; peptide 32 μg/mL
  N. gonorrhoeae killing (%): 100%
[2]; peptide 64 μg/mL
  N. gonorrhoeae killing (%): 100%
[2]; peptide 128 μg/mL
  N. gonorrhoeae killing (%): 100%
[2]; peptide 256 μg/mL
  N. gonorrhoeae killing (%): 100%
[3]; [8]
  MIC: 1.8 to 7.1 µM
[3]; [9]
  MBC: 1.8 to 7.1 µM
[4]; [8]
  MIC: 3.6 to 14.2 µM
[4]; [9]
  MBC: 3.6 to 14.2 µM
[5]; broth microdilution, cultured in MHB + 5% lysed horse blood, 5% carbon dioxide, ~5 × 10^5 CFU/mL, peptide 256–0.5 μg/mL, 37°C 16–24 h, visible growth
  MIC: 28.5 to 57.0 µM
[5]; [9]
  MBC: 28.5 to 57.0 µM
[6]; [8]
  MIC: 1.8 to 28.5 µM
[6]; [9]
  MBC: 1.8 to 28.5 µM
[7]; penicillin resistant strain, broth microdilution in MHB, ~5 × 10^5 CFU/mL, peptide 256–0.5 μg/mL two-fold dilutions, 37°C 16–24 h, visible growth by unaided eye
  MIC: 7.1 to 28.5 µM
[7]; [9]
  MBC: 7.1 to 57.0 µM
